In test [1] the test system is Blumeria graminis f sp. hordei. Put plainly: Foliar protection test, barley powdery mildew control. It counts as in vivo, Blumeria graminis f sp. hordei on Hordeum vulgare cv. Perry. The conditions noted are these: 168 h, read-out: Barley Powdery Mildew Control at 50 ppm. On the procedure:
Compounds of the present invention were evaluated in a foliar protection test to determine the ability to control barley powdery mildew. Plants (Hordeum vulgare cv. Perry) were grown for 6 days in 2-inch square pots containing Metromix 200 medium amended with fertilizer. For propagation, plants were maintained in a growth chamber at conditions of 20 to 21° C., 16 hour light cycle, 400 uM of light, 70% humidity, and with sub-irrigation as needed. After inoculation with the pathogen of Blumeria graminis f sp. hordei, plants were kept at conditions of 20 to 22° C., 70% relative humidity, and 200 uM of light to facilitate infection and disease development. At 6 days after planting (1st true leaf fully expanded), the test compounds were dissolved in a solution of 5% acetone and 0.005% Tween 80 surfactant. An atomizer was used for applying the solution onto both sides of the leaves until thoroughly wetted. The amount of the compound applied to the leaves was typically 200, 100, 50, 10, or 2 ppm, but it may vary. At 24 hours after treatment, the plants were moved to a cooler chamber and inoculated by shaking well-colonized, untreated stock plants above the treated plants. This allowed producing a settling cloud of spores and resulting in uniform infection. Efficacy was evaluated in 7 days later by examining leaves for colonization and growth of mildew. Table 5 lists the results of barley powdery mildew control at a compound concentration of 50 ppm or 10 ppm. Compounds having an activity designated as “AA” provided a compound having >85% control of barley powdery mildew; compounds having an activity designated as “A” provided a compound having from 70% to 84% control of barley powdery mildew; compounds having an activity designated as “B” provided a compound having from 50 to 69% control of barley powdery mildew; compounds having an activity designated as “C” provided a compound having from 25 to 49% control of barley powdery mildew; and compounds having an activity designated as “D” provided a compound having <25% control of barley powdery mildew.

The subject of test [2] is Phytophthora capsici (Pc). Put plainly: Growth inhibition assay of fungal pathogens, Pc. The class given is cell-based. The conditions noted are these: read-out: Concentration at 90% Inhibition, Pc. As to the method:
(§1) Compounds of the present invention were evaluated in a growth inhibition assay to determine the ability to control the growth of fungal pathogens, such as Botrtyis cinerea (Bc). Collectotrichum graminicola (Cg), Diplodia maydis (Dm), Fusarium moniliforme (Fm), Fusarium virguliforme (Fv), Phytophthora capsici (Pc), Rhizoctonia solani (Rs), and Septoria tritici (St). Compounds to be tested were dissolved in DMSO at 2.5 mg/ml to produce compound stock solutions (“stocks”). Stocks were diluted with DMSO by a five-fold dilution in a 96-well stock plate, and two sets of final concentrations of 50, 10, and 2 ppm or 2, 0.4, and 0.08 ppm were obtained in vitro. A set of positive controls was also prepared, with various concentrations of Soraphen (2, 0.4, and 0.08 ppm), Metalaxyl (1.1, 0.22, and 0.04 ppm), and Metconazole (2, 0.4, and 0.08 ppm or 0.2, 0.04, and 0.008 ppm) after the five-fold dilutions. Negative controls on each plate included 2% DMSO, water, and a blank (media+2% DMSO). Fungal spores were isolated from previously sub-cultured plates of Botrtyis cinerea (Bc), Collectotrichum graminicola (Cg), Diplodia maydis (Dm), Fusarium moniliforme (Fm), Fusarium virguliforme (Fv), Phytophthora capsici (Pc), and Septoria tritici (St). The isolated spores were diluted to individual concentrations with a 17% V8 liquid media. For Rhizoctonia solani (Rs) and Pythium irregulare, 1.5 mm mycelial plugs were used in place of spores and ¼ Potato Dextrose Broth (PDB) was used for dilution. The spore concentrations and plug sizes were based on growth curves generated at 48 hours for each pathogen. In a second 96-well plate, the spores or mycelial plugs, media, diluted compound solutions, and controls were combined. Once the compound was added, a true final concentration of compound in each well was measured by an OD600 reading, which adjusted for any compound precipitation that might have occurred in the well. Plate readings were repeated at both 24 and 48 hours. The blank negative control was used as a background subtraction. Additional visual ratings were performed at both 24 and 48 hours for checking on precipitation and confirming efficacy. Visual and OD600 ratings of the compounds at 48 hours were compared to the 2% DMSO negative control, and the percent of pathogen growth inhibition was determined based on those values.

Test [3] relates to Collectotrichum graminicola (Cg). Briefly: Growth inhibition assay of fungal pathogens, Cg. The conditions noted are these: read-out: Concentration at 90% Inhibition, Cg. It counts as cell-based. As to the method:
as §1

The subject of test [4] is Fusarium moniliforme (Fm). Put plainly: Growth inhibition assay of fungal pathogens, Fm. The conditions noted are these: Fusarium verticillioides, read-out: Concentration at 90% Inhibition, Fm. The class given is cell-based. As to the method: as §1
For test [5], the target named is Human ACC2 (Homo sapiens, UniProt O00763). Briefly: In vitro ACC2 inhibition assay (ADP-Glo), human ACC2. It counts as biochemical. The conditions noted are these: 5 nM ACC2, 20 μM ATP, 20 μM acetyl-CoA.
Human ACC2, sequence (O00763 whole entry): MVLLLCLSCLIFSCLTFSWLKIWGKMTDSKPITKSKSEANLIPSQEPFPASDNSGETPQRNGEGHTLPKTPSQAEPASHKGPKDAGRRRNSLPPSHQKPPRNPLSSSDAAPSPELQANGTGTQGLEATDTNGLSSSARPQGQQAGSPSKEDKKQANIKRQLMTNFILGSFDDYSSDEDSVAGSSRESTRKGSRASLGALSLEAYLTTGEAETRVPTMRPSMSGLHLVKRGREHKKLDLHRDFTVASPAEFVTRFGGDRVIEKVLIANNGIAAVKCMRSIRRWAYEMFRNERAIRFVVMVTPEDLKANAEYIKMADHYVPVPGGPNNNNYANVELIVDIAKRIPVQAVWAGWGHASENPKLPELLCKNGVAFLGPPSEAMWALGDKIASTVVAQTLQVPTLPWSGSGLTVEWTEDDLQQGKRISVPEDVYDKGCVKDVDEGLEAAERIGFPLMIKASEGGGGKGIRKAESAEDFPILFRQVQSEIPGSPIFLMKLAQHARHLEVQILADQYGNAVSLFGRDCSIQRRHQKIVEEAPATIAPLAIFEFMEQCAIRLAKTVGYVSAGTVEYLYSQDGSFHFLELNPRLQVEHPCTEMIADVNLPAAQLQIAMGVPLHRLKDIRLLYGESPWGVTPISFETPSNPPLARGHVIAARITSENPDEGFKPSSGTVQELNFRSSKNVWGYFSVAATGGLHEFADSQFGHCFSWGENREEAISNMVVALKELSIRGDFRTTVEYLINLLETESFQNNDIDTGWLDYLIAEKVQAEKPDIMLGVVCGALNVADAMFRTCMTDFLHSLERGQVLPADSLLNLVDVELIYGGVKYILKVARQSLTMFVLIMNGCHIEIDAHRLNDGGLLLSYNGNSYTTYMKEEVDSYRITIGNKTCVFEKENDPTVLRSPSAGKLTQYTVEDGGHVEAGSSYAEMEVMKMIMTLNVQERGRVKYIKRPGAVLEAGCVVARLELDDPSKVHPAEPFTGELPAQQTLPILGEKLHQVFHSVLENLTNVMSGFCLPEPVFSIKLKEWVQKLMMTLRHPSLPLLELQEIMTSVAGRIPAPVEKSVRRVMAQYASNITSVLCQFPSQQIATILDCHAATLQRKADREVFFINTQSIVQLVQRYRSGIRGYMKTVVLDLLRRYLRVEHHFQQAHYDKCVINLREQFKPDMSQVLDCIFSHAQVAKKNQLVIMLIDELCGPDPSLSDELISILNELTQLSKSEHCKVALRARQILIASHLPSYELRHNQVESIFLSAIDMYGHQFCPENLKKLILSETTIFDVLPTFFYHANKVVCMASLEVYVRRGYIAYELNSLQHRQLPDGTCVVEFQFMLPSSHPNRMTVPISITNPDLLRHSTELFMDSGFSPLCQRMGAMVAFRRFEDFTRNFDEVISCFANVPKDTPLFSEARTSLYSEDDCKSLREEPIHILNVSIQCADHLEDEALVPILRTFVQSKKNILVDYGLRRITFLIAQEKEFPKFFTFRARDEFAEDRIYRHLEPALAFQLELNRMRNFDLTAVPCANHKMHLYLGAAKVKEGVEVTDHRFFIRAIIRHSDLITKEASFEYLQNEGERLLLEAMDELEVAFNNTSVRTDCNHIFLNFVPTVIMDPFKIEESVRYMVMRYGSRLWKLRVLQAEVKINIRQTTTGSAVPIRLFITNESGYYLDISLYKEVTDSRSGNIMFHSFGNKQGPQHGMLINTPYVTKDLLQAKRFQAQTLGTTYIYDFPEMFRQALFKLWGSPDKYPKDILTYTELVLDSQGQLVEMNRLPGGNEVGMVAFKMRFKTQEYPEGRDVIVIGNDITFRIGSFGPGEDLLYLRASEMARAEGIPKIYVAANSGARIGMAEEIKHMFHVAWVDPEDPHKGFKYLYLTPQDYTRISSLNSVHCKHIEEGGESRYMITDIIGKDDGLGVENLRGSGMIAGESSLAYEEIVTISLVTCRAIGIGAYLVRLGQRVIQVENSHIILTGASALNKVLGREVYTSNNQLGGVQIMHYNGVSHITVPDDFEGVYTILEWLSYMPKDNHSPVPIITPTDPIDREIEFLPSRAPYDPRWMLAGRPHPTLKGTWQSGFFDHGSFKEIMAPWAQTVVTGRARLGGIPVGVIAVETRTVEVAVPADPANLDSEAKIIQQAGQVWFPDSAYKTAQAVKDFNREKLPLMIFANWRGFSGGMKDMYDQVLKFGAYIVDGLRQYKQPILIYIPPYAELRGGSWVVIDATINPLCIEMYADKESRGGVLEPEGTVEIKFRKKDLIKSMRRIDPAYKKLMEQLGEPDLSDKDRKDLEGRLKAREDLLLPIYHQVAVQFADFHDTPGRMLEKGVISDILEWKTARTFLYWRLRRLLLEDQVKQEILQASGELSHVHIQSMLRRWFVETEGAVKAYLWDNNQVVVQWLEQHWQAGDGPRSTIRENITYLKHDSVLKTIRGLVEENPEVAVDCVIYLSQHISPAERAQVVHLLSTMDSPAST
For test [6], the system named is Rhizoctonia solani (Rs). Briefly: Growth inhibition assay of fungal pathogens, Rs. It counts as cell-based. Particulars: read-out: Concentration at 90% Inhibition, Rs. On the procedure: as §1
The test system of test [7] is Botrtyis cinerea (Bc). Put plainly: Growth inhibition assay of fungal pathogens, Bc. The class given is cell-based. The conditions noted are these: read-out: Concentration at 90% Inhibition, Bc. On the procedure:
as §1

For test [8] the following is noted: compound concentration 10 ppm, foliar spray, evaluated 7 days after inoculation.
In test [9] the test system is Diplodia maydis (Dm). Briefly: Growth inhibition assay of fungal pathogens, Dm. It counts as cell-based. Particulars: Stenocarpella maydis, read-out: Concentration at 90% Inhibition, Dm. As to the method:
as §1

The subject of test [10] is Septoria tritici (St). Put plainly: Growth inhibition assay of fungal pathogens, St. The class given is cell-based. Particulars: Zymoseptoria tritici, read-out: Concentration at 90% Inhibition, St. As to the method: as §1
In test [11] the test system is Fusarium virguliforme (Fv). Briefly: Growth inhibition assay of fungal pathogens, Fv. It counts as cell-based. The conditions noted are these: read-out: Concentration at 90% Inhibition, Fv. As to the method: as §1
Test [12] has as its target Fungal ACC2 (UniProt Q00955). The conditions noted are these: read-out: Fungal ACC2 (IC50, in vitro ACC2 inhibition).
[13] abbreviates: compound concentration 50 ppm, foliar spray, evaluated 7 days after inoculation.

The text below walks through data of patent US20190330224A1, “ACC INHIBITORS AND USES THEREOF” (Gilead Apollo, LLC, priority 2015, published 2019).

Converted amounts (≈) assume the structure as drawn. Read-outs that look alike come from different tables or passages of the source.

Fungal ACC2, sequence (Q00955 whole entry): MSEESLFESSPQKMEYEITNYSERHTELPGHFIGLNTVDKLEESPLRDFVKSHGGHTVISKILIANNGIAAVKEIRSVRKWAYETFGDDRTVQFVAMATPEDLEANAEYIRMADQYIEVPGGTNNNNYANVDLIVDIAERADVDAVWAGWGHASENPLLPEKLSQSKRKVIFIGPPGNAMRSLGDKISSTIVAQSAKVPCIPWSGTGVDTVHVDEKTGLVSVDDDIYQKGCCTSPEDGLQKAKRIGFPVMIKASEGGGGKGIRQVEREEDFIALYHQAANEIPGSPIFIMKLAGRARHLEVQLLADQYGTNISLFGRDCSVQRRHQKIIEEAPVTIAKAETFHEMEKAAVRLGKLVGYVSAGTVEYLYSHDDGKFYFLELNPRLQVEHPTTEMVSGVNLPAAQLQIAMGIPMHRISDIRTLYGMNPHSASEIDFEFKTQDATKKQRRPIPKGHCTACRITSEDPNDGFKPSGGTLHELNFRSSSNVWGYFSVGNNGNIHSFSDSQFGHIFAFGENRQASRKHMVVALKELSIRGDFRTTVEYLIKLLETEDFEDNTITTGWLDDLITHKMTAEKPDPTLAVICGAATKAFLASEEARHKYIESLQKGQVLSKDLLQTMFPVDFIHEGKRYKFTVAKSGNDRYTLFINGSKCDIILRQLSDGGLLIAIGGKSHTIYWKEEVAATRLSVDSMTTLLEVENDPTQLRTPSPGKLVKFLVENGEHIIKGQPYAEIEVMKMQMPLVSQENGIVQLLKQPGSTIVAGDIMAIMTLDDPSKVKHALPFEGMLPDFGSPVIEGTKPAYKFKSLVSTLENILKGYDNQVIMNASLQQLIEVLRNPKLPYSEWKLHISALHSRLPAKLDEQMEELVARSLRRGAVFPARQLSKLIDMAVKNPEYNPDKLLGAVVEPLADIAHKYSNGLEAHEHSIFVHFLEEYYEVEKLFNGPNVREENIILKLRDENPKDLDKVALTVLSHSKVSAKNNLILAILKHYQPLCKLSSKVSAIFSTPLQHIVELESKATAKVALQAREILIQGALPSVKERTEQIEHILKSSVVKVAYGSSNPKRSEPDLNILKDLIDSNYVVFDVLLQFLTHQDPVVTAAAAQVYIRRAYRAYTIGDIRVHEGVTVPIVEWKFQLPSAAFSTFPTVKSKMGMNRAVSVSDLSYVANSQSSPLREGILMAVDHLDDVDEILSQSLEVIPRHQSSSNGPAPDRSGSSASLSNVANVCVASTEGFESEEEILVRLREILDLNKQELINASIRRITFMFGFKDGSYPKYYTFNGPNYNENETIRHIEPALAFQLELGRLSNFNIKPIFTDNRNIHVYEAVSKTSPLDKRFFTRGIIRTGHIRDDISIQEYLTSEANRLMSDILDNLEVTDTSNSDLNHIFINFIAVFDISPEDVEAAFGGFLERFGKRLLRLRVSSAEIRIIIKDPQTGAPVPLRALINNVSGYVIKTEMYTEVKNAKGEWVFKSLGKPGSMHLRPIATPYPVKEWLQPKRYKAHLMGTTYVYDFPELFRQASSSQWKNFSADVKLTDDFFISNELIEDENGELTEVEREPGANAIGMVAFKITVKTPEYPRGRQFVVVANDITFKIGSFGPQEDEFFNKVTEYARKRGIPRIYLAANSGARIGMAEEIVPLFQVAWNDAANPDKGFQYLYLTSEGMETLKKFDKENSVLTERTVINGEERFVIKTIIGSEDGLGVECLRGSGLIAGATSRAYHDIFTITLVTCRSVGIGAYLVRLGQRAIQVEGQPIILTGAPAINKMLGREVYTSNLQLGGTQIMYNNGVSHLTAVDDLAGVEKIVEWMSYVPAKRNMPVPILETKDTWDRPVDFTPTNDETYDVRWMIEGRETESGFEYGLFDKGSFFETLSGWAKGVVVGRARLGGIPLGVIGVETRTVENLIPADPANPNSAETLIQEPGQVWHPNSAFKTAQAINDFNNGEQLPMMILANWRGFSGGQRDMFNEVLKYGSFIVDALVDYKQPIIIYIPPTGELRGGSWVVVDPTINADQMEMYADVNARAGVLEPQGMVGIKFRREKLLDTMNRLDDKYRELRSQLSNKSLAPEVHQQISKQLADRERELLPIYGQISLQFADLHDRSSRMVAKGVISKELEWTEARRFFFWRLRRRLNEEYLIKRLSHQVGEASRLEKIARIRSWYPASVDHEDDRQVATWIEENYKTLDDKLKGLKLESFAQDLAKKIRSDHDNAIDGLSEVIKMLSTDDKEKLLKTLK

`COc1ccc(F)cc1[C@H](Cn1c(=O)n([C@@H]2CCNC2=O)c(=O)c2c(C)c(-n3nccn3)sc21)OCCO` [Compound I-81, 1-((R)-2-(5-fluoro-2-methoxyphenyl)-2-(2-hydroxy-ethoxy)ethyl)-5-methyl-3-((R)-2-oxopyrrolidin-3-yl)-6-(2H-1,2,3-triazol-2-yl)thieno[2,3-d]pyrimidine-2,4(1H,3H)-dione]: the pest or weed control at 50 ppm in [1] (setting [13]) fell in the range of 25 to 49%. The IC90 in test [2] (48 hours) turned out to be 10 mg/L (≈ 18.4 µM); in test [3] (48 hours), 10 mg/L (≈ 18.4 µM); in [4] (48 hours), 2 mg/L (≈ 3.67 µM); in test [6] (48 hours), 10 mg/L (≈ 18.4 µM); in test [7] (48 hours) it was 2 mg/L (≈ 3.67 µM); in [9] (48 hours) it was 10 mg/L (≈ 18.4 µM). Moreover, the IC90 in test [10] (48 hours) is more than 50 mg/L; in test [11] (48 hours) it was 2 mg/L (≈ 3.67 µM). For the same compound, the IC50 in test [5] lay within 2 to 10 nM; in test [12] it was 0.7 to 2 nM. Besides, in [8], the “Barley Powdery Mildew Control at 10 ppm” value is “D (provided a compound having <25% control of barley powdery mildew)”.

As for `COCCO[C@@H](Cn1c(=O)n([C@H]2CCNC2=O)c(=O)c2c(C)c(-n3nccn3)sc21)c1cc(F)ccc1OC` [Compound I-25, 1-((R)-2-(5-fluoro-2-methoxyphenyl)-2-(2-methoxy-ethoxy)ethyl)-5-methyl-3-((S)-2-oxopyrrolidin-3-yl)-6-(2H-1,2,3-triazol-2-yl)thieno[2,3-d]pyrimidine-2,4(1H,3H)-dione], the pest or weed control at 50 ppm in test [1] (foliar) lay within 50 to 69%. The IC90 in test [2] (48 h) is more than 50 mg/L; in test [3] (48 h), more than 50 mg/L; in test [4] (48 h) it was 10 mg/L (≈ 17.9 µM); in test [6] (48 h) it was more than 50 mg/L; in test [7] (48 h) it was more than 50 mg/L; in test [9] (48 h), more than 50 mg/L. Moreover, the IC90 in [10] (48 h) and in [11] (48 h) was more than 50 mg/L throughout. Besides, the figures for the half-inhibitory concentration (IC50) in test [5] and in [12] were 10 to 100 nM and 2 to 10 nM, respectively. The “Barley Powdery Mildew Control at 10 ppm” value in test [8] is “D (provided a compound having <25% control of barley powdery mildew)”.

For the compound `COCCO[C@@H](Cn1c(=O)n([C@@H]2CCNC2=O)c(=O)c2c(C)c(-n3nccn3)sc21)c1cc(F)ccc1OC` [Compound I-26, 1-((R)-2-(5-fluoro-2-methoxyphenyl)-2-(2-methoxy-ethoxy)ethyl)-5-methyl-3-((R)-2-oxopyrrolidin-3-yl)-6-(2H-1,2,3-triazol-2-yl)thieno[2,3-d]pyrimidine-2,4(1H,3H)-dione], the pest or weed control at 50 ppm in [1] (foliar) is 70 to 84%. The IC90 was more than 50 mg/L in [2] (48 h); more than 50 mg/L in [3] (48 h); 2 mg/L (≈ 3.58 µM) in test [4] (48 h); more than 50 mg/L in test [6] (48 h); 10 mg/L (≈ 17.9 µM) in [7] (48 h); more than 50 mg/L in test [9] (48 h). The IC90 was more than 50 mg/L in [10] (48 h) and 10 mg/L (≈ 17.9 µM) in test [11] (48 h). Further, the IC50 in [5] was in the range of 2 to 10 nM; in test [12], 0.7 to 2 nM. Further, the “Barley Powdery Mildew Control at 10 ppm” value in test [8] is listed as “D (provided a compound having <25% control of barley powdery mildew)”.

Regarding `COc1ccc(F)cc1[C@H](Cn1c(=O)n([C@@H]2CCCNC2=O)c(=O)c2c(C)c(-n3nccn3)sc21)OCCC(=O)O` [Compound I-178, 3-((R)-1-(5-fluoro-2-methoxyphenyl)-2-(5-methyl-2,4-dioxo-3-((R)-2-oxopiperidin-3-yl)-6-(2H-1,2,3-triazol-2-yl)-3,4-dihydrothieno[2,3-d]pyrimidin-1(2H)-yl)ethoxy)propanoic acid], the pest or weed control at 50 ppm in test [1] (setting [13]) was in the range of 25 to 49%. Further, the IC90 in [2] (48 hours) is more than 50 mg/L; in [3] (48 hours) it was 10 mg/L (≈ 17 µM); in [4] (48 hours), 10 mg/L (≈ 17 µM); in [6] (48 hours), 2 mg/L (≈ 3.41 µM); in [7] (48 hours), more than 50 mg/L; in test [9] (48 hours), more than 50 mg/L. For the same compound, the IC90 in test [10] (48 hours) and in test [11] (48 hours) was more than 50 mg/L each time. In addition, the IC50 in test [5] lay in the range of 10 to 100 nM; in [12] it was 0.7 to 2 nM. Further, the “Barley Powdery Mildew Control at 10 ppm” value in test [8] is reported as “D (provided a compound having <25% control of barley powdery mildew)”.

For `COc1ccc(F)cc1[C@H](Cn1c(=O)n([C@@H]2CCNC2=O)c(=O)c2c(C)c(-n3nccn3)sc21)OCCC#N` [Compound I-107, 3-((R)-1-(5-fluoro-2-methoxyphenyl)-2-(5-methyl-2,4-dioxo-3-((R)-2-oxopyrrolidin-3-yl)-6-(2H-1,2,3-triazol-2-yl)-3,4-dihydrothieno[2,3-d]pyrimidin-1(2H)-yl)ethoxy)propanenitrile], the pest or weed control at 50 ppm in [1] (setting [13]) was in the range of 50 to 69%. The IC90 in test [2] (48 hours) is more than 50 mg/L; in test [3] (48 hours), 10 mg/L (≈ 18.1 µM); in test [4] (48 hours), 2 mg/L (≈ 3.61 µM); in test [6] (48 hours), 2 mg/L (≈ 3.61 µM); in [7] (48 hours), 2 mg/L (≈ 3.61 µM); in [9] (48 hours), 10 mg/L (≈ 18.1 µM). In addition, the figures for the IC90 in test [10] (48 hours) and in test [11] (48 hours) were more than 50 mg/L and 2 mg/L (≈ 3.61 µM), respectively. For the same compound, the results for the IC50 in [5] and in [12] were 2 to 10 nM and 0.7 to 2 nM, respectively. Besides, in test [8], the “Barley Powdery Mildew Control at 10 ppm” value was “C (provided a compound having from 25 to 49% control of barley powdery mildew)”.
